Legend:
Assay in all cases: Kinase inhibitor library screening, PrestoBlue cell viability, 1 or 10 μM, 72 h
[1] = system: IGR37-GP cells (Dabrafenib-resistant); conditions: IGR37 GP
Experimental: (§1) After 72 h of treatment, cell viability was assessed using the PrestoBlue Cell Viability Reagent (ThermoFisher Scientific). Measurements were performed with the CLARIOstar Monochromator microplate reader (BMG Labtech).
(§2) Kinase inhibitor library screening. […] Each cell line was treated in its sensitive form (parental), and also as 2 resistant derivatives, which were made resistant to either Vemurafenib (XP) or Dabrafenib (GP). Drugs were added at 2 different concentrations, 1 and 10 μM, for 72 h and cell viability was assessed using the PrestoBlue Cell Viability assay. Results are depicted as % viability compared to untreated cells. Each cell line was analyzed at least in duplicate. […] (XLSX 95 kb)

[2] = system: A375-XP cells (Vemurafenib-resistant); conditions: A375 XP
Experimental: as §1, §2

A375 cells (parental) = conditions: A375 Parental
Experimental: as §1, §2

[3] = system: IGR37-XP cells (Vemurafenib-resistant); conditions: IGR37 XP
Experimental: as §1, §2

501Mel cells (parental) = conditions: 501Mel Parental, in %
Experimental: as §1, §2

[4] = system: A375-GP cells (Dabrafenib-resistant); conditions: A375 GP
Experimental: as §1, §2

[5] = system: 501Mel-GP cells (Dabrafenib-resistant); conditions: 501Mel GP
Experimental: as §1, §2

[6] = system: 501Mel-XP cells (Vemurafenib-resistant); conditions: 501Mel XP
Experimental: as §1, §2

IGR37 cells (parental) = conditions: IGR37 Parental, 72 h
Experimental: as §1, §2

In the case of `Cc1nc(NC(=O)N2CCC[C@H]2C(N)=O)sc1-c1csc(C(C)(C)C)n1` [A66], the Cell viability in kinase inhibitor library screening, IGR37 GP, 10μΜ ([1]; 10μΜ, 72 h) is reported as 75%, the “Cell viability in kinase inhibitor library screening, IGR37 GP, 1μΜ” value ([1]; 1μΜ, 72 h, in %) is reported as 91.2 and the “Cell viability in kinase inhibitor library screening, A375 XP, 1μΜ” value ([2]; 1μΜ, 72 h) is reported as 92.2. For the same compound, the “Cell viability in kinase inhibitor library screening, A375 XP, 10μΜ” value ([2]; 10μΜ, 72 h) was 75.9, the “Cell viability in kinase inhibitor library screening, A375 Parental, 10μΜ” value (A375 cells (parental); 10μΜ, 72 h) was 72.4 and the “Cell viability in kinase inhibitor library screening, A375 Parental, 1μΜ” value (A375 cells (parental); 1μΜ, 72 h) was 98.3. For the same compound, the Cell viability in kinase inhibitor library screening, IGR37 XP, 10μΜ ([3]; 10μΜ, 72 h) was 41.5%, the “Cell viability in kinase inhibitor library screening, IGR37 XP, 1μΜ” value ([3]; 1μΜ, 72 h, in %) was 91.5 and the “Cell viability in kinase inhibitor library screening, 501Mel Parental, 1μΜ” value (501Mel cells (parental); 1μΜ, 72 h) was 94.4. For the same compound, the “Cell viability in kinase inhibitor library screening, 501Mel Parental, 10μΜ” value (501Mel cells (parental); 10μΜ, 72 h) was 85.2, the “Cell viability in kinase inhibitor library screening, A375 GP, 1μΜ” value ([4]; 1μΜ, 72 h) was 93.1 and the “Cell viability in kinase inhibitor library screening, A375 GP, 10μΜ” value ([4]; 10μΜ, 72 h) was 64.2. For the same compound, the “Cell viability in kinase inhibitor library screening, 501Mel GP, 1μΜ” value ([5]; 1μΜ, 72 h, in %) was 92.2, the “Cell viability in kinase inhibitor library screening, 501Mel GP, 10μΜ” value ([5]; 10μΜ, 72 h, in %) was 75.2 and the “Cell viability in kinase inhibitor library screening, 501Mel XP, 1μΜ” value ([6]; 1μΜ, 72 h, in %) was 102.8. For the same compound, the “Cell viability in kinase inhibitor library screening, 501Mel XP, 10μΜ” value ([6]; 10μΜ, 72 h, in %) was 65.7.

With `COc1ccc2c(Oc3ccc(NC(=O)c4c(C)n(CC(C)(C)O)n(-c5ccccc5)c4=O)nc3)ccnc2c1` [AMG458] the “cell viability (kinase inhibitor library screening)” value ([1]; 1μΜ, 72 h) was 97.0%, the “cell viability (kinase inhibitor library screening)” value ([1]; 10μΜ, 72 h) was 88.1% and the “cell viability (kinase inhibitor library screening)” value ([2]; 1μΜ, 72 h) was 106.6%. The “cell viability (kinase inhibitor library screening)” value ([2]; 10μΜ, 72 h) was 96.2%, the “cell viability (kinase inhibitor library screening)” value (A375 cells (parental); 10μΜ, 72 h) was 96.0% and the “cell viability (kinase inhibitor library screening)” value (A375 cells (parental); 1μΜ, 72 h) was 106.7%. For the same compound, the “cell viability (kinase inhibitor library screening)” value ([3]; 1μΜ, 72 h) was 94.8%, the “cell viability (kinase inhibitor library screening)” value ([3]; 10μΜ, 72 h) was 55.7% and the “cell viability (kinase inhibitor library screening)” value ([4]; 1μΜ, 72 h) was 107.8%. The “cell viability (kinase inhibitor library screening)” value ([4]; 10μΜ, 72 h) was 90.9%, the “cell viability (kinase inhibitor library screening)” value (IGR37 cells (parental); 1μΜ) was 107.7% and the “cell viability (kinase inhibitor library screening)” value ([5]; 1μΜ, 72 h) was 92.9%. For the same compound, the “cell viability (kinase inhibitor library screening)” value ([5]; 10μΜ, 72 h) was 70.8% and the “cell viability (kinase inhibitor library screening)” value ([6]; 10μΜ, 72 h) was 51.7%.

For `C[C@@H]1CCN(C(=O)CC#N)C[C@@H]1N(C)c1ncnc2[nH]ccc12.O=C(O)CC(O)(CC(=O)O)C(=O)O` [Tofacitinib citrate (CP-690550 citrate)], the cell viability, IGR37 GP, 10μΜ ([1]; 10μΜ, 72 h) was 94.9%, the “cell viability, IGR37 GP, 1μΜ” value ([1]; 1μΜ, 72 h, in %) was 98.3 and the “cell viability, A375 XP, 1μΜ” value ([2]; 1μΜ, 72 h, in %) was 103.3. The “cell viability, A375 Parental, 10μΜ” value (A375 cells (parental); 10μΜ, 72 h, in %) was 93.7, the cell viability, IGR37 XP, 10μΜ ([3]; 10μΜ, 72 h) was 83.2% and the “cell viability, IGR37 XP, 1μΜ” value ([3]; 1μΜ, 72 h, in %) was 104.3. For the same compound, the “cell viability, A375 GP, 1μΜ” value ([4]; 1μΜ, 72 h, in %) was 103.6, the “cell viability, IGR37 Parental, 10μΜ” value (IGR37 cells (parental); 10μΜ, in %) was 107.1 and the “cell viability, 501Mel GP, 1μΜ” value ([5]; 1μΜ, 72 h, in %) was 103.5. For the same compound, the “cell viability, 501Mel GP, 10μΜ” value ([5]; 10μΜ, 72 h, in %) was 93.7, the “cell viability, 501Mel XP, 1μΜ” value ([6]; 1μΜ, 72 h, in %) was 94.0 and the “cell viability, 501Mel XP, 10μΜ” value ([6]; 10μΜ, 72 h, in %) was 90.7.

`Cc1ccccc1-n1c(Cn2cnc3c(N)ncnc32)nc2cccc(C)c2c1=O` [IC-87114] was tested, and the Cell viability in kinase inhibitor library screening, IGR37 GP, 10μΜ ([1]; 10μΜ, 72 h) was 91.5%, the “Cell viability in kinase inhibitor library screening, A375 XP, 1μΜ” value ([2]; 1μΜ, 72 h) was 103.8 and the “Cell viability in kinase inhibitor library screening, A375 XP, 10μΜ” value ([2]; 10μΜ, 72 h) was 102.9. The “Cell viability in kinase inhibitor library screening, A375 Parental, 10μΜ” value (A375 cells (parental); 10μΜ, 72 h) was 90.3, the “Cell viability in kinase inhibitor library screening, A375 Parental, 1μΜ” value (A375 cells (parental); 1μΜ, 72 h) was 98.8 and the Cell viability in kinase inhibitor library screening, IGR37 XP, 10μΜ ([3]; 10μΜ, 72 h) was 77.2%. For the same compound, the “Cell viability in kinase inhibitor library screening, IGR37 XP, 1μΜ” value ([3]; 1μΜ, 72 h, in %) was 93.3, the “Cell viability in kinase inhibitor library screening, A375 GP, 1μΜ” value ([4]; 1μΜ, 72 h) was 93.5 and the “Cell viability in kinase inhibitor library screening, A375 GP, 10μΜ” value ([4]; 10μΜ, 72 h) was 88.8. The “Cell viability in kinase inhibitor library screening, IGR37 Parental, 1μΜ” value (IGR37 cells (parental); 1μΜ, in %) was 97.2, the “Cell viability in kinase inhibitor library screening, IGR37 Parental, 10μΜ” value (IGR37 cells (parental); 10μΜ, in %) was 99.7 and the “Cell viability in kinase inhibitor library screening, 501Mel GP, 1μΜ” value ([5]; 1μΜ, 72 h, in %) was 100.1. For the same compound, the “Cell viability in kinase inhibitor library screening, 501Mel GP, 10μΜ” value ([5]; 10μΜ, 72 h, in %) was 87.1, the “Cell viability in kinase inhibitor library screening, 501Mel XP, 1μΜ” value ([6]; 1μΜ, 72 h, in %) was 98.1 and the “Cell viability in kinase inhibitor library screening, 501Mel XP, 10μΜ” value ([6]; 10μΜ, 72 h, in %) was 83.6.

For `Cc1[nH]c(/C=C2\C(=O)Nc3ccccc32)c(C)c1CCC(=O)O` [TSU-68], the “cell viability (kinase inhibitor library screening)” value ([1]; 1μΜ, in %) was 97.4, the “cell viability (kinase inhibitor library screening)” value ([2]; 1μΜ, in %) was 108.6 and the “cell viability (kinase inhibitor library screening)” value ([2]; 10μΜ, in %) was 103.8. The “cell viability (kinase inhibitor library screening)” value (A375 cells (parental); 1μΜ, in %) was 114.1, the “cell viability (kinase inhibitor library screening)” value (A375 cells (parental); 10μΜ, in %) was 107.4 and the “cell viability (kinase inhibitor library screening)” value ([3]; 1μΜ, in %) was 95.2. For the same compound, the “cell viability (kinase inhibitor library screening)” value ([3]; 10μΜ, in %) was 76.8, the “cell viability (kinase inhibitor library screening)” value (501Mel cells (parental); 1μΜ) was 103.3 and the “cell viability (kinase inhibitor library screening)” value ([4]; 1μΜ, in %) was 113.8. The “cell viability (kinase inhibitor library screening)” value ([4]; 10μΜ, in %) was 94.6, the “cell viability (kinase inhibitor library screening)” value ([5]; 1μΜ, in %) was 108.8 and the “cell viability (kinase inhibitor library screening)” value ([5]; 10μΜ, in %) was 99.1. For the same compound, the “cell viability (kinase inhibitor library screening)” value ([6]; 1μΜ, in %) was 99.9 and the “cell viability (kinase inhibitor library screening)” value ([6]; 10μΜ, in %) was 80.9.

— publication PMC6364417, “Kinase inhibitor library screening identifies synergistic drug combinations effective in sensitive and resistant melanoma cells” (Journal of Experimental & Clinical Cancer Research : CR, 2019)
